Reference: US5639439A, “Gallium dimercaptosuccinate as a novel tumor imaging agent” (Institute of Nuclear Energy Research, Taiwan, priority 1994, dated 1997)

How the values were obtained:
glioblastoma (GBM) = assay: Animal biodistribution in glioblastoma (GBM) tumor-bearing athymic nude mice; assay type: in vivo; details: 2 hr. postinjection, tail vein
Description: The six-week old athymic nude mice were obtained from the Experiment Animal Center, Tri-service General Hospital, Taipei, Taiwan. The viable cultured cells, glioblastoma (GBM), were implanted in the upper back leg by intradermal injection. The tissue biodistribution of gallium-67 dimercaptosuccinate was determined following injection (0.15 to 0.2 ml) into tail vein of ketamine anesthetized in tumor-bearing mice. The reanesthetized animals were sacrificed immediately thereafter by decapitation at given time intervals. The organs of interest were subsequently excised, blotted with tissue paper, weighed and the radioactivity was measured. The tissue distribution of gallium-67 dimercaptosuccinate and gallium-67 chloride in tumor-bearing mice are shown in FIG. 1 at 2 hr. postinjection, as much as 7.8% and 1.1% were in GBM and gallium-67 chloride respectively.

tumor = assay: Gamma camera imaging of tumor-bearing mice; assay type: in vivo, athymic nude mice; details: gamma images at 5 min and 15 min
Description: FIG. 2 is a photograph showing the position of tumors in the body of athymic nude mice imaged […] after injection with gallium-67 dimercaptosuccinate.
Imaging was performed using the Elscint gamma camera with medium energy collimator, and a SIMIS-IV nuclear medicine computer for data processing.

Compound	tissue distribution in GBM (glioblastoma (GBM)) [%]	in vivo stability (tumor)
[Cl][Ga]([Cl])[Cl] [gallium-67 chloride, reference compound]	1.1	–
gallium-67 dimercaptosuccinate	7.8	stable in vivo
